Measurements as given in US20230233671A1, “RNA MOLECULES” (Pfizer Inc., priority 2021, published 2023).

What was measured:
Vero cells = test: VZV gE expression and subcellular localization in Vero cells transfected with VZV RNA constructs (imaging); assay type: cell-based, African green monkeys; settings: Table 8; VZV gE RNA, see Example 2
Method: Expression of VZV RNA constructs were tested in transfected Vero cells, a kidney epithelial cell culture line derived from African green monkeys. Seeded Vero cells were transfected for 24 hours at 37° C., 5% CO2 with 10 ng, 25 ng, or 50 ng of RNA constructs (Table 5) using MESSENGERMAX™ in accordance with the manufacturer's instructions. Cells were washed three times with PBS+Ca/Mg, and fixed in 4% paraformaldehyde (PFA) for 20 minutes at 25° C. Cells were washed twice with 3% bovine serum albumin (BSA) in PBS+Ca/Mg. Primary and secondary staining antibodies were diluted in 0.1% saponin in goat serum. Cells were stained with a 1:1000 dilution of primary antibody for 1 hour at 37° C., washed three times with PBS+Ca/Mg, and incubated with secondary antibody (1:500) and CELLMASK™ (1:140,000) for 45 minutes at 37° C. Cells were then stained with Dapi (1:15,000-1:20,000) for 15 minutes at 25° C., and washed three times with PBS+Ca/Mg. Cells were analyzed for VZV gE expression and subcellular localization using an Opera PHENIX® Plus High-Content Screening System at 10× or 63× magnification.

VZV gE [1] = test: Serum VZV gE-binding IgG levels (LUMINEX) in LAV-experienced C57BL/6 mice; assay type: in vivo; settings: for Day 35 (GMC), serum gE-binding IgG: C57BL/6 mice, LAV SQ Day 0, Day 35 prior to immunization; for Day 63 (GMC), serum gE-binding IgG / Day 76 (GMC), serum gE-binding IgG: LAV-experienced C57BL/6 mice; for Day 63 (GMC), serum gE-binding IgG: Day 63 (1 month post dose 1); for Day 76 (GMC), serum gE-binding IgG: Day 76 (13 days post dose 2/boost)
Method: Serum IgG levels were determined for each mouse sample using the LUMINEX® platform. Briefly, diluted sera were incubated in the dark in the presence of blocked, recombinant gE protein-bound single-plex microspheres (MAGPLEX® Microspheres, region 79) for 20±4 hours at 2-8° C., 300 rpm. A secondary antibody solution (R-phycoerythrin Conjugated AffiniPure F(ab)′2 Fragment Goat Anti-Mouse IgG F(ab)′2 Fragment Specific) was prepared at 1:250 in LXA-16 buffer. Plates were washed three times in LXA-20 (EIA-7), and secondary antibody was applied to each well of the assay plate. Plates were covered with aluminum sealers and incubated for 2 hours±15 minutes at 25° C., 300 rpm. Plates were washed three times with LXA-20 (EIA-7) buffer, and 100 ul LXA-20 was applied to each well. Plates were covered with aluminum sealers and incubated at 25° C., 300 rpm for a minimum of 4 minutes, or up to 2 hours. Plates were analyzed on a BIO-PLEX® Reader. IgG titers for Day, 28, 34 and 42 are show in Table 10 and FIGS. 17-19.
(§1) VZV RNA-LNP vaccines were tested for their ability to induce IgG and T cell responses in C57BL/6 mice. 15 mice per group were immunized in accordance with the schedule and specification in Table 11. Briefly, 10 or 15 mice per group were primed subcutaneously (SQ) on Day 0 with a live-attenuated varicella (LAV) vaccine (VARIVAX®, Merck) using a full human dose per mouse (1350 pfu), immunized intramuscularly (IM) on Day 35 day and boosted on Day 63. The “infection” with a LAV vaccine mimics exposure to VZV that humans receive when infected with VZV as children and develop chickenpox.
(§2) Mice immunized with SHINGRIX® received 1, 2.5, or 5 μg, corresponding to 1/50, 1/20, and 1/10 of the human clinical dose, respectively; mice immunized with gE_WT CO2 received 0.5 or 1 μg VZV RNA-LNP; mice immunized with ms5 CO1 received 0.5 or 1 ug VZV RNA-LNP; mice immunized with ms6 CO2 received 0.5 or 1 ug VZV RNA-LNP; and mice immunized with lyophilized gE_WT CO2 received 0.5 or 1 ug VZV RNA-LNP. Saline was administered on Day 35 and 63 to a negative control group. Sera was collected from mice on Day 35, 63 and 76 for characterization of VZV gE-binding IgG levels (LUMINEX® analyses). Spleens were harvested on Day 48 (13 days post dose 1 for selected groups) and Day 76 for cellular analysis (T cell and B cell responses).
Serum IgG levels were determined for each mouse sample using the LUMINEX® platform (described herein). IgG titers for Day 35, 63 (1 month post dose 1) and 76 (13 days pose dose 2) are show in Table 12 and FIGS. 22-24. Each data point in the figures is a result from an individual animal; each horizontal lines represents the geometric mean IgG concentration (μg/ml) and whiskers represent the 95% confidence interval.

VZV gE [2] = test: Frequency of gE-specific IgG+ B cells in splenocytes of LAV-experienced C57BL/6 mice (flow cytometry); assay type: in vivo; settings: percentage of IgG-expressing B cells
Method: as §1, §2
Vaccine-induced B cell response was evaluated by measuring the frequencies of VZV gE-specific B cells in the spleen. Wild type gE protein ectodomain with streptag was coupled to streptavidin (SA)-fluorochromes PE and APC, both from BioLegend in the ratio of 2:1 in separate tubes for 1 hour at room temperature (RT) at 20× of desired staining concentration (10 μg/mL for each protein). Each of the SA-fluorochrome-coupled spike proteins were pooled and diluted to 1× using flow cytometry (FC) buffer (2% FBS/PBS) to generate B-cell probes to identify gE-specific B cells. Single cell suspensions of splenocytes (5×10^6 cells per well) were first washed in PBS and stained with eFluor 506 Fixable Viability dye for 10 minutes at RT to identify live from dead cells. Following washes in FC buffer, cells were incubated with 50 μL/well of 1×B-cell probe for 30 to 45 minutes and then washed to remove unbound probes. Cells were surface stained with a cocktail of flow cytometry antibodies (CD19, IgD, IgM, IgD, All from BioLegend) to identify B cell surface phenotypes. Following washing, cells were fixed using BD Fixation buffer and suspended in FC buffer. Cells were acquired on LSR Fortessa and data analyzed by FlowJo (10.7.1). The results of gE-specific B cells were expressed as the percentage of IgG-expressing B cells.

[3] = Day 48 (13 days post dose 1), 1 μg IM Day 35
[4] = Day 76 (13 days post dose 2/boost), 1 μg IM Days 35 and 63

Substance	VZV RNA (Vero cells) MFI (Vero cells)	Day 35 (GMC), serum gE-binding IgG (VZV gE [1]; 0.5 μg group)	Day 35 (GMC), serum gE-binding IgG (VZV gE [1]; 1 μg group)	Day 63 (GMC), serum gE-binding IgG (VZV gE [1]; 0.5 μg IM Day 35)	Day 76 (GMC), serum gE-binding IgG (VZV gE [1]; 0.5 μg IM Days 35 and 63)	Day 63 (GMC), serum gE-binding IgG (VZV gE [1]; 1 μg IM Day 35)	Day 76 (GMC), serum gE-binding IgG (VZV gE [1]; 1 μg IM Days 35 and 63)	gE-specific IgG+ B cells (VZV gE [2]; [3])	gE-specific IgG+ B cells (VZV gE [2]; [4])
ms5 CO1: modRNA construct, ORF SEQ ID NO: 153, VZV gE with deletion of aa 582-623	1368	0.11 µg/mL	0.14 µg/mL	41 µg/mL	556 µg/mL	76 µg/mL	530 µg/mL	4.14%	2.19%
ms6 CO2: modRNA construct, ORF SEQ ID NO: 157, VZV gE with deletion of aa 539-623, secreted	458	0.28 µg/mL	0.19 µg/mL	50 µg/mL	464 µg/mL	58 µg/mL	723 µg/mL	1.85%	1.38%
